Marks after values point to notes of the source that are not given here.
Key:
Format in all cases: in vivo, C57BL/6 mice
YAC-1 target cells = experiment: NK cell cytotoxicity in spleen cell suspensions, 51Cr release assay; details: mouse splenocytes, dietary supplementation
Text: (§1) 6-8 Weeks old female C57BL/6 mice (Charles River) received semi-purified AIN-93G-based diets (Research Diet Service, Wijk bij Duurstede, the Netherlands), comprising
1) 2 wt % beta-galacto-oligosaccharide (GOS; source Vivinal GOS, Borculo Domo), fructo-oligosaccharide (FOS; source RaftilineHP, Orafti) and galacturonic acid oligosaccharide (Source AOS) in a 9:1:1.1 ratio. AOS are produced from pectin (Stidzucker AG, Mannheim, Germany), with a DP of 1-20. It consists of approximately 75% galacturonic acid oligomers, based on total weight;
2) 1 wt % lactoneotetraose (LNnT),
3) 1 wt % 3′-sialyl lactose (3′-SL), or
4) 1 wt % 2′-fucosyllactose (2′-FL).
(§2) All groups were compared to the unsupplemented control diet. Dietary supplementation started 14 days before the first vaccination and lasted until the end of the experiment, 31 days after the first vaccination.
Vaccination experiments were performed using Influvac (Solvay Pharmaceuticals, Weesp, the Netherlands) from season 2005/2006. […] The percentage of specific ^51Cr release was calculated as the percentage of specific lysis=(experimental release−spontaneous release)/(total detergent release−spontaneous release)×100. […]
(§3) Statistical analysis was performed using GraphPadPrism software. Statistical differences between test and control groups were analysed by ANOVA and post hoc Dunnett's test if multiple groups were compared to a single (control) group. […]

[1] = tested on: regulatory T cells (Treg); experiment: Percentage of regulatory T cells (Treg) by flow cytometry; details: dietary supplementation, vaccinated mice
Procedure: All groups were compared to the unsupplemented control diet. Dietary supplementation started 14 days before the first vaccination and lasted until the end of the experiment, 31 days after the first vaccination. […]
The percentage of regulatory T cells (Treg) was determined by flow cytometry (FACSCalibur) using allophycocyanin (APC-)labelled anti-mouse CD3 mAb, Pe-Cy5-labeled anti-mouse CD4 mAb and phycoerythrin (PE)-labelled anti-mouse CD25 mAb in combination with intracellular staining of fluorescein-isotiocyanate (FITC)-labelled Foxp3 mAb, according to the instructions offered by the manufactures (eBiosciences, San Diego, Calif.).

DTH response = DTH response after Influvac vaccination; details: dietary supplementation, vaccinated mice; TH1-dependent parameter
Procedure: as §1, §2
Vaccination experiments were performed using Influvac (Solvay Pharmaceuticals, Weesp, the Netherlands) from season 2005/2006. The mice received a primary vaccination and a booster vaccination, consisting of a subcutaneous (sc) injection of a 1:1 mix of vaccine and adjuvant in a total volume of 100 μl. The booster vaccination was given at 21 days after the primary vaccination. The experiments ended 10 days after booster vaccination. Blood samples were taken at the end of the experiment. […] The percentage of specific ^51Cr release was calculated as the percentage of specific lysis=(experimental release−spontaneous release)/(total detergent release−spontaneous release)×100. […]
as §3

| Molecule | NK cell activity, % lysis At E:T ratio 1:50 (YAC-1 target cells) [% lysis] | Treg percentage (s.e.m.) [1] | DTH response compared with control-fed animals (DTH response) |
| --- | --- | --- | --- |
| CC(=O)N[C@H]1[C@H]([C@H](O)[C@H](O)CO)O[C@@](O[C@H]2[C@@H](O)[C@@H](CO)O[C@@H](O[C@H]3[C@H](O)[C@@H](O)C(O)O[C@@H]3CO)[C@@H]2O)(C(=O)O)C[C@@H]1O (stereo partly drawn) [3′-SL, 3′-sialyl lactose] | 1.93 | 2.8 (0.2)* percentage | significant increase |
| lactoneotetraose [LNnT] | 2.14 | 3.2 (0.2) percentage | significant increase |
